{
  "source": "patent US20140213605A1",
  "about": "“METHODS FOR TREATING EYE DISORDERS USING OPIOID RECEPTOR ANTAGONISTS” (priority 2013, published 2014)",
  "origin": "cited, not measured here",
  "key": {"[1]": {"conditions": "in vivo"}},
  "data": [
    {"smiles": "Oc1ccc2c3c1O[C@H]1[C@H](O)CC[C@@]4(O)[C@@H](C2)N(CC2CC2)CC[C@]314", "note": "[6-β-naltrexol]", "values": [
      {"measurement": "Bound to plasma protein", "setting": "[1]", "value": "Approximately 20%"}
    ]},
    {"smiles": "O=C1CC[C@@]2(O)[C@H]3Cc4ccc(O)c5c4[C@@]2(CCN3CC2CC2)[C@H]1O5", "note": "[Naltrexone]", "values": [
      {"measurement": "Effect on incidence of re-epithelialization of the rat cornea", "setting": "rat cornea; systemically administered", "value": "markedly influenced the incidence of re-epithelialization"},
      {"measurement": "Effect on re-epithelialization of the rat cornea", "setting": "rat cornea; topical application in sterile water", "value": "not effective"},
      {"measurement": "Excreted unchanged", "setting": "[1]", "value": "Less than 1%"}
    ]}
  ]
}
